For two compounds, Ki results are on record in ChEMBL document CHEMBL1134077, “Synthesis of potent and selective dopamine D(4) antagonists as candidate radioligands” (Bioorg Med Chem Lett, 2001).

Where only a bound is given, the exact number is not on record here.

One assay has as its target Glutamate NMDA receptor. Put plainly: Binding affinity to PCP site of rat N-methyl-D-aspartate glutamate receptor. The assay is classed as protein-complex assay.
In assay [1] the target is T1, Muscarinic acetylcholine receptor M4 (Homo sapiens, UniProt P08173).
T1 sequence (P08173 whole entry): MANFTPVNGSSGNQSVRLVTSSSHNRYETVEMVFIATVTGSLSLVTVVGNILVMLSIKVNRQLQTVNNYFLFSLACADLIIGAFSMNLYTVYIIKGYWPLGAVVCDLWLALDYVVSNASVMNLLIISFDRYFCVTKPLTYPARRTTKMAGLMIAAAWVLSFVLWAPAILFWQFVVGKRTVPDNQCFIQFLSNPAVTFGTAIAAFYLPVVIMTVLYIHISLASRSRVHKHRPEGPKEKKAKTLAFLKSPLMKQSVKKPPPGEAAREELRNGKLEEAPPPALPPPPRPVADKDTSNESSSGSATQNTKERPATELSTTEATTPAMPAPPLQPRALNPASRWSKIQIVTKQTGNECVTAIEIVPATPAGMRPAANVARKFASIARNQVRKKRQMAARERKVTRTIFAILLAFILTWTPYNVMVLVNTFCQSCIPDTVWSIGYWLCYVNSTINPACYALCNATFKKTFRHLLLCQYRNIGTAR
The experiment in a line: Binding affinity to cloned Muscarinic acetylcholine receptor M4.

A further assay concerns the target D(1B) dopamine receptor (Rattus norvegicus, UniProt P25115). Put plainly: In vitro binding affinity to cloned rat D5 receptor measured by displacement of radioligand [3H]SCH-23,982.
In assay [2] the target is T2, Muscarinic acetylcholine receptor M2 (Homo sapiens, UniProt P08172).
T2 sequence (P08172 whole entry): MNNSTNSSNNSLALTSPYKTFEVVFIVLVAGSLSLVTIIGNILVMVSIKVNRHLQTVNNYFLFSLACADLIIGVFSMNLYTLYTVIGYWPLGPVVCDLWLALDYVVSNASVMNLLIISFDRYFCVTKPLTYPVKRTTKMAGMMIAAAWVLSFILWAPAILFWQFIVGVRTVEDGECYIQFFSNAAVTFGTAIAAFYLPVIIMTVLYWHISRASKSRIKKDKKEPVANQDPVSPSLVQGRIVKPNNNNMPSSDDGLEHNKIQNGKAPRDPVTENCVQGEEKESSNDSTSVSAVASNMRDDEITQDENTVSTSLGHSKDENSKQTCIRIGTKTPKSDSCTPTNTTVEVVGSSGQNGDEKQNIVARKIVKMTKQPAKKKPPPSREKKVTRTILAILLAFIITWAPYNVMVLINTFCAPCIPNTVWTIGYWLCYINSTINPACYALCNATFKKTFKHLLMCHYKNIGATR
Put plainly: Binding affinity to cloned Muscarinic acetylcholine receptor M2.

Assay [3] concerns the target Delta-type opioid receptor (Homo sapiens, UniProt P41143). The experiment in a line: Binding affinity to cloned Opioid receptor delta 1.
A further assay concerns the target D(2) dopamine receptor (Rattus norvegicus, UniProt P61169). Put plainly: In vitro binding affinity to rat Dopamine receptor D2 measured by displacement of the radioligand [3H]spiperone.
A short description of assay [4]: Binding affinity to cloned Nicotinic acetylcholine receptors. Set-up: species or system Rattus norvegicus.
The target of assay [5] is Glutamate [NMDA] receptor. The experiment in a line: Binding affinity for N-methyl-D-aspartate glutamate receptor. The assay is classed as protein-complex assay.
Another assay addresses D(1A) dopamine receptor (Rattus norvegicus, UniProt P18901). Put plainly: In vitro binding affinity to cloned rat Dopamine receptor D1 measured by displacement of radioligand [3H]SCH-23,982. The arrangement: […].
The target of the next assay is T3, D(4) dopamine receptor (Rattus norvegicus, UniProt P30729).
T3 sequence (P30729 whole entry): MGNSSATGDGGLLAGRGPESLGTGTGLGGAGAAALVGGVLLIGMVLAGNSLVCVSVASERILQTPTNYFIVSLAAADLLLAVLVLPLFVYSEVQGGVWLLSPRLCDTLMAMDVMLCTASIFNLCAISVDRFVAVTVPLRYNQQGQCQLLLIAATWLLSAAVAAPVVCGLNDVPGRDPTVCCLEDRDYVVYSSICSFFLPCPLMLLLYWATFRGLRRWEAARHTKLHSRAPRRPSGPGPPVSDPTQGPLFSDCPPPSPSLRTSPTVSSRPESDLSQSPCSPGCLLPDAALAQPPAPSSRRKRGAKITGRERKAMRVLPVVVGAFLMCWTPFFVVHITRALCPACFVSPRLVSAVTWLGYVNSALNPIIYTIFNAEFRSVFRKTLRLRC
The experiment in a line: In vitro binding affinity to rat Dopamine receptor D4 measured by displacement of the radioligand [3H]spiperone.

Assay [6] has as its target 5-hydroxytryptamine receptor 7 (Homo sapiens, UniProt P34969). The experiment in a line: In vitro binding affinity to human 5-hydroxytryptamine 7 receptor.
Assay [7] has as its target 5-hydroxytryptamine receptor 1E (Homo sapiens, UniProt P28566). The experiment in a line: Binding affinity to cloned human 5-hydroxytryptamine 1E receptor.
A further assay deals with Mu-type opioid receptor (Homo sapiens, UniProt P35372). Put plainly: Binding affinity to cloned Opioid receptor mu 1.
In assay [8] the target is 5-hydroxytryptamine receptor 5A (Homo sapiens, UniProt P47898). The experiment in a line: Binding affinity to cloned human 5-hydroxytryptamine 5A receptor.
The target of assay [9] is Kappa-type opioid receptor (Homo sapiens, UniProt P41145). Put plainly: Binding affinity to cloned Opioid receptor kappa 1.
The target in assay [10] is Muscarinic acetylcholine receptor M3 (Homo sapiens, UniProt P20309). The experiment in a line: Binding affinity to cloned Muscarinic acetylcholine receptor M3.
The target of assay [11] is 5-hydroxytryptamine receptor 6 (Homo sapiens, UniProt P50406). The experiment in a line: In vitro binding affinity to human 5-hydroxytryptamine 6 receptor.
In assay [12] the target is T4, 5-hydroxytryptamine receptor 2C (Homo sapiens, UniProt P28335).
T4 sequence (P28335 whole entry): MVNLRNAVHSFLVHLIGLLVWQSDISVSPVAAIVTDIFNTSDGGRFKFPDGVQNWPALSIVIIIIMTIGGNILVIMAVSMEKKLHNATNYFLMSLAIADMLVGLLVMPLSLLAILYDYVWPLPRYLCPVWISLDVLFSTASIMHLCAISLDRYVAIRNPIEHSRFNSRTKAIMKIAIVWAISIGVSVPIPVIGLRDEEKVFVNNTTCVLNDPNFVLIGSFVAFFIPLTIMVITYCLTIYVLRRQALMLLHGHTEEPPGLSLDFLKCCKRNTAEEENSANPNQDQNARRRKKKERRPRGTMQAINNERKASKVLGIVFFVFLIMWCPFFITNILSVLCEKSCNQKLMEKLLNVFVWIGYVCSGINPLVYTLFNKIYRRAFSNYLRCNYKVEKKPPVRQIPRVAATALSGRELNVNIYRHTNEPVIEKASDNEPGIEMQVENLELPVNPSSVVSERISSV
The experiment in a line: Binding affinity to cloned human 5-hydroxytryptamine 2C receptor.

Assay [13] addresses 5-hydroxytryptamine receptor 1B (Homo sapiens, UniProt P28222). The experiment in a line: Binding affinity to cloned human 5-hydroxytryptamine 1B receptor.
The target in the next assay is D(3) dopamine receptor (Rattus norvegicus, UniProt P19020). Put plainly: In vitro binding affinity to cloned rat Dopamine receptor D3 measured by displacement of the radioligand [3H]sulpiride. Set-up: […].
Assay [14] has as its target 5-hydroxytryptamine receptor 2A (Homo sapiens, UniProt P28223). The experiment in a line: Binding affinity to cloned human 5-hydroxytryptamine 2A receptor.

5-hydroxytryptamine receptor 1B, sequence (P28222 whole entry): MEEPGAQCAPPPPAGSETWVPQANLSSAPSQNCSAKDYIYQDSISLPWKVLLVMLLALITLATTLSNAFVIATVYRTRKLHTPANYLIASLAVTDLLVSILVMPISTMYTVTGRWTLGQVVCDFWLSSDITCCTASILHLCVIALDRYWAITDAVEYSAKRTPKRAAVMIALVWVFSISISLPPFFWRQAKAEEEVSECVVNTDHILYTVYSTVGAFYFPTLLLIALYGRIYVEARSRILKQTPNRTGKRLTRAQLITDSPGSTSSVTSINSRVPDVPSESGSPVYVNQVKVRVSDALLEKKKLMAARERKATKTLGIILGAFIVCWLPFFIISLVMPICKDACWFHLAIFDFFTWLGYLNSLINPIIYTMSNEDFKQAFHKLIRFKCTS
Mu-type opioid receptor, sequence (P35372 whole entry): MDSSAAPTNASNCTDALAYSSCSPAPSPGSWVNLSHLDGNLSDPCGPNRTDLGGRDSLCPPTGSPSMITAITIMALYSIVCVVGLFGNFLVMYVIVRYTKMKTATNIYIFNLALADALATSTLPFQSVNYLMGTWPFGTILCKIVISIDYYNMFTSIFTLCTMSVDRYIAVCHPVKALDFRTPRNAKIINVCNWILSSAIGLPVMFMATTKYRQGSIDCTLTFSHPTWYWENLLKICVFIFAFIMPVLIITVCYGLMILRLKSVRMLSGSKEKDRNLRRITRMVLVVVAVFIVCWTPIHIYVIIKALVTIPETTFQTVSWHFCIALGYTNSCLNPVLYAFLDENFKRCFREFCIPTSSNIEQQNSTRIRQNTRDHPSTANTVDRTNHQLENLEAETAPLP
Muscarinic acetylcholine receptor M3, sequence (P20309 whole entry): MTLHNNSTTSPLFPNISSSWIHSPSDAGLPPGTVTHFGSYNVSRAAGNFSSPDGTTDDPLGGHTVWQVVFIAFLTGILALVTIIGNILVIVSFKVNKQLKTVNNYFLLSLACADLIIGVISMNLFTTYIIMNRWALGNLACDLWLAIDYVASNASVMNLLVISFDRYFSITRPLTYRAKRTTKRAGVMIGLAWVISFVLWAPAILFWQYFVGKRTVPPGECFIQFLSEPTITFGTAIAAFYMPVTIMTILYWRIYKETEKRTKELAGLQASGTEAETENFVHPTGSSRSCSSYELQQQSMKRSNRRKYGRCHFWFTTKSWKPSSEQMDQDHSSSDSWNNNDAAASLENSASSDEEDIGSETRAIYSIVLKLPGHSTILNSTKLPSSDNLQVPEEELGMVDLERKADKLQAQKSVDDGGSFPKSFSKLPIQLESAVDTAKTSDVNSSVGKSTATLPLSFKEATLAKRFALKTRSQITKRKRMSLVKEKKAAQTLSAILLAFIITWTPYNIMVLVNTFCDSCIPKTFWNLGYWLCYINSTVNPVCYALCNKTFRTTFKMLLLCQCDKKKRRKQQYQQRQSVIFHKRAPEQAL
D(3) dopamine receptor, sequence (P19020 whole entry): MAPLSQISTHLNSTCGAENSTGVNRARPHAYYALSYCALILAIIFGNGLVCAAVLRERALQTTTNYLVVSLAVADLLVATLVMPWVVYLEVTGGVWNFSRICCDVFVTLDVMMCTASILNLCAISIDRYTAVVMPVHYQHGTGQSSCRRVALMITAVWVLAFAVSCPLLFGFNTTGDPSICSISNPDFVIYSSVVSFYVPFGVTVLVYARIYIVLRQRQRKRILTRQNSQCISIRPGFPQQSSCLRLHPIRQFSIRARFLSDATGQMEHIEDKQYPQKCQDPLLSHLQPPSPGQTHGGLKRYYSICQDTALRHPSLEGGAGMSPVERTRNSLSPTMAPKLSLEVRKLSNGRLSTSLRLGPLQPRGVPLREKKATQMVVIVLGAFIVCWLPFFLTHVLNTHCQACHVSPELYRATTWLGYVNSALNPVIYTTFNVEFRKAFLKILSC
Kappa-type opioid receptor, sequence (P41145 whole entry): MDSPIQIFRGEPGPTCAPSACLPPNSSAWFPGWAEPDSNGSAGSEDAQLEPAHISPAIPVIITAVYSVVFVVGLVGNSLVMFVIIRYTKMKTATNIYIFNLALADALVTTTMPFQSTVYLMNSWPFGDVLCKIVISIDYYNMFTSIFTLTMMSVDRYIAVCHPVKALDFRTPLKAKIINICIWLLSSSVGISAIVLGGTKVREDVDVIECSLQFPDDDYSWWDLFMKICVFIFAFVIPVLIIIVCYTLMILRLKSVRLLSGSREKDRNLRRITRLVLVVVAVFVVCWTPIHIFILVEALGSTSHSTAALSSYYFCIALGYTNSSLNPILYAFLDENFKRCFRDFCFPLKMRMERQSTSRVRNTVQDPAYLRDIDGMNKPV
5-hydroxytryptamine receptor 7, sequence (P34969 whole entry): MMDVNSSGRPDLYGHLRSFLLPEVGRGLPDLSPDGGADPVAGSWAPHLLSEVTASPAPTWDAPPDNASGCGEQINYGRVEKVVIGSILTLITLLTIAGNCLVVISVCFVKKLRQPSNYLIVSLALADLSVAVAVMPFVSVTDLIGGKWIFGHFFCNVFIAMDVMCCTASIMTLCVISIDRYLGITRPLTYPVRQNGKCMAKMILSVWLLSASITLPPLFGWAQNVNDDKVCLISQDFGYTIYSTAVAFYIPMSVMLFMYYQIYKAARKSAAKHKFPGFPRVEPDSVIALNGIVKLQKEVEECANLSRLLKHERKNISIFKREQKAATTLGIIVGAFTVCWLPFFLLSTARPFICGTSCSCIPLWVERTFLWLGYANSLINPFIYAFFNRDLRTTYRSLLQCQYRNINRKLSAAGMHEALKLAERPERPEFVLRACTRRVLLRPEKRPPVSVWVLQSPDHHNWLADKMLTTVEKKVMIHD
D(2) dopamine receptor, sequence (P61169 whole entry): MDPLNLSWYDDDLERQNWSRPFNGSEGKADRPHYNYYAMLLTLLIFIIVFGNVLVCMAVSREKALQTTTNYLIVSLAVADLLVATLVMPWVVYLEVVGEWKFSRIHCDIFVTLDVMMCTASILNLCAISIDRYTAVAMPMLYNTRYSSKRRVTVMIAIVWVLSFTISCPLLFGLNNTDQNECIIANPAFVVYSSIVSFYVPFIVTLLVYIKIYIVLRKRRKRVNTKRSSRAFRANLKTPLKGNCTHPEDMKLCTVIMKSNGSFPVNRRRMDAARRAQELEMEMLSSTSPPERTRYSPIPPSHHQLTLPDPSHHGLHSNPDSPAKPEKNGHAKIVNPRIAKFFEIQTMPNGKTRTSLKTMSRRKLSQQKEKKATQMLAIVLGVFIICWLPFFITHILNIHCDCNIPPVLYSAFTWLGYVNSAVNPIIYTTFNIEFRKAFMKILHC
Delta-type opioid receptor, sequence (P41143 whole entry): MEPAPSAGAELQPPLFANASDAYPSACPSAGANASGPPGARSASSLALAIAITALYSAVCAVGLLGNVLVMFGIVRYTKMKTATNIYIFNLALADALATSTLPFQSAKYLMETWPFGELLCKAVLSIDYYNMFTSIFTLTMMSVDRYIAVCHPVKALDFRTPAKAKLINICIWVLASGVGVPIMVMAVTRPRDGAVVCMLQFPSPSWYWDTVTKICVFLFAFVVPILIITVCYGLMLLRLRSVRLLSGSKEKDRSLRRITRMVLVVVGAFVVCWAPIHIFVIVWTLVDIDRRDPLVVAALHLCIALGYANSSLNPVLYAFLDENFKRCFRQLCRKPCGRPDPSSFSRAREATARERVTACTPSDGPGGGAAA
D(1B) dopamine receptor, sequence (P25115 whole entry): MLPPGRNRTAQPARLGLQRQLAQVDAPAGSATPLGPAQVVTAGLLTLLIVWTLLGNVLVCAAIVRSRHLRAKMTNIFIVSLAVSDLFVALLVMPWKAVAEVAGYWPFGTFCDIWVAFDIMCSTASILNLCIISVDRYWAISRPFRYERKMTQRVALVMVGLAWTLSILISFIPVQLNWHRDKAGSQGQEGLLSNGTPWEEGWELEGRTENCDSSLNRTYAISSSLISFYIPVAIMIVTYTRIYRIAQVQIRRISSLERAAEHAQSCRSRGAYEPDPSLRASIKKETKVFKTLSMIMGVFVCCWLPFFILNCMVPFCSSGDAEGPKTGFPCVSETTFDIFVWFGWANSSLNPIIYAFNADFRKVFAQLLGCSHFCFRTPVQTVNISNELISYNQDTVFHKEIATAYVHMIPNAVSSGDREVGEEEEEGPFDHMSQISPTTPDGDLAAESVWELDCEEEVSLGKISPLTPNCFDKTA
5-hydroxytryptamine receptor 1E, sequence (P28566 whole entry): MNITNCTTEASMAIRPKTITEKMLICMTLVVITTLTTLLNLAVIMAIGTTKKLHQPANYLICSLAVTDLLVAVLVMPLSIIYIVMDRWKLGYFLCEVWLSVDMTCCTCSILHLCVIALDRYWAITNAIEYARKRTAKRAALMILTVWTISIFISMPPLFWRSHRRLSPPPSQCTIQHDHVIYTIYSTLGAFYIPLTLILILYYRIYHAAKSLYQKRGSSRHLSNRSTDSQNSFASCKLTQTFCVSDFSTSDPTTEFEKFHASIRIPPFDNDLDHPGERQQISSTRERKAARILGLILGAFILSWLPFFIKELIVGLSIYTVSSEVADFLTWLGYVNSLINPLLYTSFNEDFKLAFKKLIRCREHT
D(1A) dopamine receptor, sequence (P18901 whole entry): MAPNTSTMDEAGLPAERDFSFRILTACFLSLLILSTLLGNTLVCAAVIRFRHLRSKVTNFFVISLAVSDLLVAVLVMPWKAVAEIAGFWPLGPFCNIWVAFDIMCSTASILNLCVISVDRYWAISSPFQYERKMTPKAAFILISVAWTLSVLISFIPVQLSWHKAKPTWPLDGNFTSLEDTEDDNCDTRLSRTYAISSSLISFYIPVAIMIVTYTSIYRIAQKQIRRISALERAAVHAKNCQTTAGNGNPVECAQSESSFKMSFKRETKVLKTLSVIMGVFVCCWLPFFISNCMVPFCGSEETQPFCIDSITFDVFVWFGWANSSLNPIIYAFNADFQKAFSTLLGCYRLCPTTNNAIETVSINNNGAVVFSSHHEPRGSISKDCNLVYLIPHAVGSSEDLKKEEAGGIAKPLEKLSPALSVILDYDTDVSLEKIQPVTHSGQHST

For orientation: Ki means a dissociation constant, usually derived from enzyme kinetics or from competition with a known ligand. Low values mean a stronger hold on the target, high ones a looser hold on the target. On to `CCc1ccc(N2CCN(Cc3c[nH]c4ncccc34)CC2)cc1`, for which the Ki (on Glutamate NMDA receptor; in assay [1]; on D(1B) dopamine receptor; in assay [2]; in [3]; on D(2) dopamine receptor) was greater than 10 µM throughout. Also, the Ki in assay [4] is greater than 10 µM; in [5] it was greater than 10 µM; on D(1A) dopamine receptor, greater than 10 µM; on D(4) dopamine receptor, 0.005 µM; in [6], 0.411 µM; in [7] it was greater than 10 µM. Also, the inhibition constant Ki on Mu-type opioid receptor is greater than 10 µM; in [8], greater than 10 µM; in assay [9] it was greater than 10 µM; in assay [10], greater than 10 µM; in assay [11], 4.46 µM; in assay [12], greater than 10 µM. For the same compound, the Ki was greater than 10 µM in assay [13], 1.69 µM on D(3) dopamine receptor and 0.627 µM in assay [14].
For `c1ccc(-c2ccc(N3CCN(Cc4c[nH]c5ncccc45)CC3)cc2)cc1`, the Ki (at Glutamate NMDA receptor; in assay [1]; at D(1B) dopamine receptor; in [2]; in [3]; on D(2) dopamine receptor) was greater than 10 µM in each case. Besides, the Ki in assay [4] was greater than 10 µM; in assay [5], greater than 10 µM; at D(1A) dopamine receptor it was greater than 10 µM; at D(4) dopamine receptor, 0.148 µM; in [6], greater than 10 µM; in assay [7], greater than 10 µM. Also, the Ki (at Mu-type opioid receptor; in [8]; in [9]; in assay [10]; in assay [11]; in assay [12]) was greater than 10 µM throughout. For the same compound, the figures for the Ki (in assay [13]; at D(3) dopamine receptor; in [14]) were greater than 10 µM, greater than 10 µM and 1.93 µM, respectively.
